Source: patent EP4506003A1, “HALOGEN DERIVATIVES OF (4´,5´- METHYLENEDIOXYPHENYL)-6,7-DIMETHOXY-1,2,3,4-TETRAHYDROISOQUINOLINE FOR USE IN THE TREATMENT OF LEUKEMIA” (S.Yu Yunusov Institute of Chemistry of Plant Substances of …, priority 2023, dated 2025)
Marks after values point to notes of the source that are not given here.

Columns and labels:
cervical carcinoma cells = conditions: read-out: CE50 dose; cited from earlier work
lung cancer H460 = conditions: cited from earlier work
fibroblasts = test: MTT cytotoxicity on fibroblasts; type: cell-based; conditions: Fibroblast, 24 hours
Procedure: (§1) The cytotoxic properties of the compounds were determined in vitro using the MTT method in 96-well plates (Costar, USA). […] Rat liver hepatocytes were obtained according to the method, human blood mononuclear cells - according to [23]. Fibroblast cells were obtained according to the method of [24] with some modifications. Cell cultures were subcultured into 96-well plates according to the method of [21] by adding 100 μl of nutrient medium. The CCRF-CEM suspension culture was poured into a tube, centrifuged at 800 rpm for 10 minutes, and the supernatant was discarded. […] Data obtained in 3 independent experiments were expressed as the mean value for each concentration ± standard error of the mean, relative to the control values (cells without test compounds). The cytotoxic effect of each of the studied compounds was compared with the effect of the cytostatic Cisplatin-Naprod (India), containing cisplatin as an active component. Table 1: IC50 μM value for test compounds

[1] = tested on: blood of patients with B-ALL; test: Hemogram of blood of patients with B-ALL after exposure; type: cell-based
Procedure: A total of 798 blood samples from patients with leukemia were examined.
(§4) The drugs Cytosar (Alexan) (Ebewe Pharma, Austria) and doxorubicin (Naprod, Mumbai, India) recommended by WHO for the treatment of the above oncohematological diseases were used as comparison drugs.
(§5) 5 ml of venous blood from sick and conditionally healthy individuals were collected into Vacutainer tubes with the addition of EDTA (Himedia, India).
(§6) The resulting blood was divided into aliquots of 1 ml and 10 µl (10 µg/ml) of the studied drugs (cytosar, doxorubicin, F1 and F2) were added to each tube.

[2] = tested on: blood of patients with ALL; test: Hemogram of blood of patients with ALL after exposure; type: cell-based
Procedure: (§7) The effect of compounds F1 and F2 was studied on biological material (blood) of patients with hematological malignancies (leukemia), as well as for individual nosologies, in particular, patients with leukemia (combined group) (n=224), T-ALL (n=84), B-ALL (n=100), ALL (n=100), AML (n= 98), AML (n=94) and AML (n= 98) were studied. A total of 798 blood samples from patients with leukemia were examined.
as §5, §6

[3] = tested on: blood of patients with AML; test: Hemogram of blood of patients with AML after exposure (Example 12, Table 9); type: cell-based
Procedure: as §4, §5, §6

[4] = tested on: blood of patients with T-ALL; test: Hemogram of blood of patients with T-ALL after exposure; type: cell-based
Excerpt: as §7, §4, §5, §6

Rat liver hepatocytes = test: MTT cytotoxicity on hepatocytes; type: cell-based; conditions: Rattus norvegicus, Hepatocyte, 24 hours
Procedure: as §1

[5] = tested on: blood of patients with AML; test: Hemogram of blood of patients with AML after exposure (Example 14, Table 11); type: cell-based; conditions: AML (Table 11); 10 µg/ml; 3 hours, 37.0°C
Excerpt: as §7, §4, §5, §6

[6] = tested on: blood of patients with AML; test: Hemogram of blood of patients with AML after exposure (Example 13, Table 10; also OMML); type: cell-based
Procedure: as §4, §5, §6

[7] = tested on: CCRF-CEM (CCL-119) (T-lymphoblastic leukemia); test: MTT cytotoxicity on CCRF-CEM cells; type: cell-based; conditions: Homo sapiens, 24 hours
Procedure: as §1

[8] = tested on: blood of patients with leukemia (combined group); test: Hemogram of blood of patients with leukemia (combined group) after exposure; type: cell-based
Excerpt: as §7, §4, §5, §6

outbred white mice = test: Acute toxicity study (LD50)
Procedure: (§2) We studied the acute toxicity of compound F1 in vivo. The experiments were carried out on outbred white mice of both sexes weighing 18-20 g (24 pcs.). The animals were divided into groups of 12 mice each. The compound was dissolved in DMSO and then adjusted to the desired concentration with 0.9% NaCl solution and administered intraperitoneally and subcutaneously in a dose range from 5.0 to 200.0 mg/kg. […] The maximum relative error of the applied dose was no more than 5%.
(§3) We studied the acute toxicity of compound F2 in vivo. The experiments were carried out on outbred white mice of both sexes weighing 18-20 g (24 pcs.). The animals were divided into groups of 12 mice each. The compound was dissolved in DMSO and then brought to the desired concentration with 0.9% NaCl solution and administered intraperitoneally and subcutaneously to animals in a dose range from 5.0 to 200.0 mg/kg. […] The maximum relative error of the administered dose was no more than 5%.

[9] = Acute toxicity study (LD50); conditions: mouse, in vivo, ip
Procedure: as §2, §3

[10] = AML (Table 9), 10 µg/ml, 3 hours, 37.0°C
[11] = AML (Example 13), compared with doxorubicin
[12] = AML (Table 10), 10 µg/ml, 3 hours, 37.0°C

## CS(=O)(=O)N1CCC(Nc2n[nH]c3c2nc(-c2c(F)cccc2F)c2cc(C(N)=O)ccc23)CC1 [5-(2,6-difluorophenyl)-3-{[1-(methylsulfonyl)piperidin-4-yl]amino}-1H-pyrazolo[4,3-c]isoquinoline-7-carboxamide]
Cervical carcinoma cells
  EC50: 259 nM

## C/C=C(/C)C(=O)OC[C@H]1C2=C(C[C@H]3[C@H]4C5=C(C[C@@H]([C@H](C#N)N13)N4C)C(=O)C(C)=C(OC)C5=O)C(=O)C(C)=C(OC)C2=O [renieramycin M]
Lung cancer H460
  IC50: 40 µM

## COc1cc2c(cc1OC)C(c1cc3c(cc1Cl)OCO3)NCC2 (stereo not shown) [Compound F2, 1-(2'-chloro-4',5'-methylenedioxyphenyl)-6,7-dimethoxy-1,2,3,4-tetrahydroisoquinoline]
fibroblasts
  IC50: > 100 µM
[1]
  decrease in the content of blasts: 1.27 times
  increase in the proportion of destroyed cells: 4.9 times
[1]; 10 µg/ml, 3 hours, 37.0°C
  Band (s/n) neutrophils: 1,7±0,4%
  Blasts: 53,9±2,6 %
  Destroyed cells: 15,2±1,8*^ %
  Eosinophils: 0,0±0,0%
  Lymphocytes: 14,6±2,0%
  Monocytes: 2,8±0,9%
  Myelocytes: 0,8±0,2%
  Promyelocytes: 0,0±0,0%
  Segmented (s/i) neutrophils: 11,1±2,0 %
[2]; 10 µg/ml, 3 hours, 37.0°C
  Band (s/n) neutrophils: 0,7±0,2%
  Blasts: 67,9±1,6*^ %
  Destroyed cells: 13,2±1,4*^ # %
  Eosinophils: 0,2±0,1%
  Lymphocytes: 13,4±1,3%
  Monocytes: 1,1±0,3%
  Myelocytes: 0,0±0,0%
  Promyelocytes: 0,0±0,0%
  Segmented (s/i) neutrophils: 3,7±0,7 %
[2]; compared to cytosar
  percentage of destroyed cells higher: 2.8 times
[2]; compared with cytosar
  difference in the level of blast cells: 1.16 times
[2]; in comparison with doxorubicin
  increase in the proportion of destroyed cells: 2.75 times
[3]; AML (Example 12)
  decrease in the percentage of blasts: 1.2 times
  increase in the level of destroyed cells: 4.0 times
  increase in the proportion of mature differentiated neutrophils: 2.0 times
[3]; [10]
  Band (s/n) neutrophils: 0,9±0,4%
  Blasts: 65,6±2,4 %
  Destroyed cells: 8,2±1,1%
  Eosinophils: 0,8±0,5%
  Lymphocytes: 11,5±1,8%
  Monocytes: 4,4±0,9%
  Myelocytes: 1,3±0,7%
  Promyelocytes: 0,4±0,2%
  Segmented (s/i) neutrophils: 7,0±1,1 %
[4]; 10 µg/ml, 3 hours, 37.0°C
  Band (s/n) neutrophils: 0,8±0,2%
  Blasts: 68,2±2,2 %
  Destroyed cells: 16,1±1,3 A %
  Eosinophils: 0,0±0,0%
  Lymphocytes: 6,7±0,6*^ # %
  Monocytes: 1,2±0,2*^ %
  Myelocytes: 0,0±0,0%
  Promyelocytes: 0,0±0,000%
  Segmented (s/i) neutrophils: 7,0±1,0*^ %
[4]; comparator not stated
  increase in the percentage of destroyed cells: 1.8 times
[4]; compared with doxorubicin
  decrease in lymphocytes: 1.7 times
  decrease in monocytes: 1.9 times
[4]; comparison with the cytosar group
  increase in the proportion of mature and differentiated neutrophils: 2.3 times
Rat liver hepatocytes
  IC50: > 100 µM
[5]
  Band (s/n) neutrophils: 1,2±0,3%
  Blasts: 59,1±3,3 %
  Destroyed cells: 19,3±1,7 %
  Eosinophils: 0,5±0,2%
  Lymphocytes: 8,2±1,1%
  Monocytes: 1,8±0,3%
  Myelocytes: 0,4±0,1%
  Promyelocytes: 0,0±0,0%
  Segmented (s/i) neutrophils: 9,6±2,5%
[6]; AML (Example 13)
  decrease in the percentage of myelocytes: 2.1 times
  decrease in the proportion of blasts: 11.7%
  increase in the proportion of destroyed cells: 2.6 times
  increase in the proportion of neutrophils: 2.3 times
[6]; AML (Example 13), compared with Cytosar
  proportion of destroyed cells higher: 2.1 times
[6]; [11]
  percentage of lymphocytes lower: 1.9 times
  percentage of neutrophils lower: 1.7 times
[6]; AML (Example 13), relative to cytosar
  percentage of myelocytes lower: 5.0 times
[6]; [12]
  Band (s/n) neutrophils: 2,9±0,4%
  Blasts: 51,9±2,2%
  Destroyed cells: 16,6±1,6*^ %
  Eosinophils: 0,5±0,2%
  Lymphocytes: 3,2±0,8 %
  Monocytes: 3,2±0,4 %
  Myelocytes: 3,2±0,5 %
  Promyelocytes: 0,0±0,0%
  Segmented (s/i) neutrophils: 18,6±1,7 %
[7]
  IC50: 21 µM
[8]; 10 µg/ml, 3 hours, 37.0°C
  Band (s/n) neutrophils: 1,6±0,2 %
  Blasts: 65,2±2,8 %
  Destroyed cells: 12,9±1,8 %
  Eosinophils: 1,6±0,3 %
  Lymphocytes: 12,3±1,2%
  Monocytes: 4,7±0,7 %
  Myelocytes: 2,5±0,6 %
  Promyelocytes: 3,8±2,1%
  Segmented (s/i) neutrophils: 5,5±0,9%
[8]; compared to the control group
  increase in the level of destroyed cells: 2.3 fold
[8]; versus Control group
  decrease in the content of blasts: 14.6%
Outbred white mice; classified from LD50
  toxicity class: toxicity class 3 (moderately toxic)
Outbred white mice; relative to cytosar
  LD50 value, times higher than cytosar (cytarabine): 52 times
Outbred white mice; relative to doxorubicin
  LD50 value, times higher than doxorubicin: 20 times
[9]
  LD50 at 168 h: 220 ± 15.6 mg/kg
